From PubChem BioAssay (NCI)
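Grown in 96-well plates, cells were treated for 48 hours with each compound at five concentrations. Insufficient inhibition: endpoint recorded as highest concentration tested. GI50 is the concentration that inhibits growth by half. The concentration for full growth arrest is given as TGI.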

How the values were obtained:
Assay in all cases: DTP human tumour cell line panel, 48 h
[1] = test system: NCI-H226 lung
[2] = test system: MDA-MB-231 breast
[3] = test system: UACC-257 melanoma
[4] = test system: SR leukemia
[5] = test system: SK-MEL-2 melanoma
[6] = test system: SF-539 CNS
[7] = test system: HT29 colon
[8] = test system: SK-MEL-5 melanoma
[9] = test system: EKVX NSCLC
[10] = test system: U251 CNS
[11] = test system: NCI/ADR-RES ovarian
[12] = test system: KM12 colon
[13] = test system: SK-MEL-28 melanoma
[14] = test system: NCI-H460 lung
[15] = test system: RXF 393 renal
[16] = test system: DU-145 prostate
[17] = test system: NCI-H522 lung
[18] = test system: SNB-75 CNS
[19] = test system: NCI-H23 lung
[20] = test system: LOX IMVI melanoma
[21] = test system: HOP-92 NSCLC
[22] = test system: HS 578T breast
[23] = test system: PC-3 prostate
[24] = test system: 786-0 renal
[25] = test system: OVCAR-3 ovarian
[26] = test system: COLO 205 colon
[27] = test system: A498 renal
[28] = test system: HOP-62 NSCLC
[29] = test system: BT-549 breast
[30] = test system: OVCAR-4 ovarian
[31] = test system: T-47D breast
[32] = test system: HCT-116 colon
[33] = test system: M14 melanoma
[34] = test system: MDA-MB-435
[35] = test system: MCF7 breast
[36] = test system: TK-10 renal
[37] = test system: MALME-3M melanoma
[38] = test system: OVCAR-5 ovarian
[39] = test system: RPMI-8226 leukemia
[40] = test system: SN12C renal
[41] = test system: CCRF-CEM leukemia
[42] = test system: K-562 leukemia
[43] = test system: HCT-15 colon
[44] = test system: IGROV1 ovarian
[45] = test system: UACC-62 melanoma
[46] = test system: CAKI-1 renal
[47] = test system: SNB-19 CNS
[48] = test system: OVCAR-8 ovarian
[49] = test system: SF-268 CNS
[50] = test system: MDA-MB-468 breast
[51] = test system: UO-31 renal
[52] = test system: MOLT-4 leukemia
[53] = test system: HL-60(TB) leukemia
[54] = test system: SW-620 colon
[55] = test system: A549 NSCLC
[56] = test system: SK-OV-3 ovarian
[57] = test system: SF-295 CNS
[58] = test system: ACHN renal
[59] = test system: HCC-2998 colon

Compound: O=C(N/C(=C1/OCCN1Cc1ccccc1)[P+](c1ccccc1)(c1ccccc1)c1ccccc1)c1ccccc1
- GI50 [1]: 3.91 µM
- TGI [1]: 15.6 µM
- GI50 [2]: 2.1 µM
- TGI [2]: 5.81 µM
- GI50 [3]: 2.22 µM
- TGI [3]: 5.97 µM
- GI50 [4]: 2.7 µM
- TGI [4]: 11.6 µM
- GI50 [5]: 2.36 µM
- TGI [5]: 6.08 µM
- GI50 [6]: 6.59 µM
- TGI [6]: 19.6 µM
- GI50 [7]: 6.13 µM
- TGI [7]: 29.8 µM
- GI50 [8]: 1.58 µM
- TGI [8]: 2.93 µM
- GI50 [9]: 3.63 µM
- TGI [9]: 12.2 µM
- GI50 [10]: 3.24 µM
- TGI [10]: 13 µM
- GI50 [11]: > 100 µM
- TGI [11]: > 100 µM
- GI50 [12]: 3.4 µM
- TGI [12]: 11.9 µM
- GI50 [13]: 3.75 µM
- TGI [13]: 14.9 µM
- GI50 [14]: 3.71 µM
- TGI [14]: 14.6 µM
- GI50 [15]: 2.46 µM
- TGI [15]: 10.3 µM
- GI50 [16]: 4.46 µM
- TGI [16]: 17.4 µM
- GI50 [17]: 1.83 µM
- TGI [17]: 6.36 µM
- GI50 [18]: 1.62 µM
- TGI [18]: 10.7 µM
- GI50 [19]: 3.16 µM
- TGI [19]: 13.3 µM
- GI50 [20]: 4.12 µM
- TGI [20]: 15.1 µM
- GI50 [21]: 1.99 µM
- TGI [21]: 7.37 µM
- GI50 [22]: 3.07 µM
- TGI [22]: 20.7 µM
- GI50 [23]: 3.77 µM
- TGI [23]: 16.4 µM
- GI50 [24]: 10.7 µM
- TGI [24]: 23.8 µM
- GI50 [25]: 2.78 µM
- TGI [25]: 10.8 µM
- GI50 [26]: 2.66 µM
- TGI [26]: 7.46 µM
- GI50 [27]: 16.4 µM
- TGI [27]: 31.4 µM
- GI50 [28]: 11.3 µM
- TGI [28]: 25 µM
- GI50 [29]: 2.47 µM
- TGI [29]: 8.75 µM
- GI50 [30]: 5 µM
- TGI [30]: 21.8 µM
- GI50 [31]: 2.41 µM
- TGI [31]: 12.9 µM
- GI50 [32]: 3.09 µM
- TGI [32]: 12.9 µM
- GI50 [33]: 3.67 µM
- TGI [33]: 15.7 µM
- GI50 [34]: 3.2 µM
- TGI [34]: 12 µM
- GI50 [35]: 2.71 µM
- TGI [35]: 11.3 µM
- GI50 [36]: 4.06 µM
- TGI [36]: 16.8 µM
- GI50 [37]: 1.66 µM
- TGI [37]: 3.7 µM
- GI50 [38]: 13.5 µM
- TGI [38]: 26.8 µM
- GI50 [39]: 1.14 µM
- TGI [39]: 3.94 µM
- GI50 [40]: 3.34 µM
- TGI [40]: 11.7 µM
- GI50 [41]: 3.84 µM
- TGI [41]: 29.9 µM
- GI50 [42]: 2.08 µM
- TGI [42]: > 100 µM
- GI50 [43]: 15.6 µM
- TGI [43]: 30.2 µM
- GI50 [44]: 2.47 µM
- TGI [44]: 9.71 µM
- GI50 [45]: 2.05 µM
- TGI [45]: 6.71 µM
- GI50 [46]: 5.76 µM
- TGI [46]: 21.7 µM
- GI50 [47]: 2.79 µM
- TGI [47]: 10.7 µM
- GI50 [48]: 4.25 µM
- TGI [48]: 16.9 µM
- GI50 [49]: 3.41 µM
- TGI [49]: 15.7 µM
- GI50 [50]: 1.45 µM
- TGI [50]: 5.68 µM
- GI50 [51]: 15.5 µM
- TGI [51]: 29.1 µM
- GI50 [52]: 3.36 µM
- TGI [52]: 68.3 µM
- GI50 [53]: 1.78 µM
- TGI [53]: 5.46 µM
- GI50 [54]: 4.51 µM
- TGI [54]: 17.1 µM
- GI50 [55]: 15.1 µM
- TGI [55]: 54.4 µM
- GI50 [56]: 10.3 µM
- TGI [56]: 27.2 µM
- GI50 [57]: 9.92 µM
- TGI [57]: 21.9 µM
- GI50 [58]: 13.4 µM
- TGI [58]: 26.5 µM
- GI50 [59]: 2.68 µM
- TGI [59]: 9.86 µM
